{"source": "ChEMBL document CHEMBL4033775", "about": "“Natural-Products-Inspired Use of the gem-Dimethyl Group in Medicinal Chemistry” (J Med Chem, 2018)", "key": {"[1]": {"biological_target": "5-hydroxytryptamine receptor 2C (Homo sapiens, UniProt P28335)", "sequence (P28335 whole entry)": "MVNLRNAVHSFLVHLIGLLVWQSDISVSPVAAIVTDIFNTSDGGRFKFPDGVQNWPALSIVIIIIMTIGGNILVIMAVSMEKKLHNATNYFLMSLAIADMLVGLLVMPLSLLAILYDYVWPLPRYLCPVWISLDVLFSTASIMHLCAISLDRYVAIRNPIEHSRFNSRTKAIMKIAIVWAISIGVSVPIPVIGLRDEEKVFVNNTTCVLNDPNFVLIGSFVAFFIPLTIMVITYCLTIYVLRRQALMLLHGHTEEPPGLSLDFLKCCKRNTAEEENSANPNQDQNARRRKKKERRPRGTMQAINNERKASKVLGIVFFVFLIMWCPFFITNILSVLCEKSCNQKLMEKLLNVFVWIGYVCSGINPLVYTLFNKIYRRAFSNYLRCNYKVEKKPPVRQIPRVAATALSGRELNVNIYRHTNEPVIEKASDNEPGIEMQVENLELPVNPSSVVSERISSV", "test": "Agonist activity at human 5-HT2C receptor expressed in mouse NIH/3T3 cells assessed as induction of IP3 formation after 0.5 hrs", "assay_type": "functional, cell-based"}, "[2]": {"tested_on": "Rattus norvegicus", "test": "Anti-hypertensive activity in conscious spontaneously hypertensive Okamoto rat assessed as reduction in systolic blood pressure at 0.1 mg/kg, po measured up to 6 hrs post dose relative to control", "assay_type": "functional", "set-up": "scale not given: the % may be the effect or the level left"}, "[3]": {"tested_on": "Rattus norvegicus", "test": "Anti-hypertensive activity in conscious spontaneously hypertensive Okamoto rat assessed as reduction in systolic blood pressure at 0.3 mg/kg, po measured up to 6 hrs post dose relative to control", "assay_type": "functional", "set-up": "scale not given: the % may be the effect or the level left"}, "[4]": {"tested_on": "Clostridioides difficile", "test": "Antibacterial activity against Clostridium difficile", "assay_type": "functional"}, "[5]": {"biological_target": "Sodium/hydrogen exchanger 1 (Homo sapiens, UniProt P19634)", "test": "Inhibition of human NHE1 by cell based assay"}, "[6]": {"test": "Half life in po dosed rat", "assay_type": "ADME, organism-based", "conditions": "in vivo"}, "[7]": {"test": "Clearance in po dosed rat", "assay_type": "ADME, organism-based", "conditions": "in vivo"}, "[8]": {"test": "Tmax in Sprague-Dawley rat at 10 mg/kg, po measured up to 120 mins post dose by HPLC analysis", "assay_type": "ADME, organism-based", "conditions": "in vivo"}, "[9]": {"test": "Half life in Hartley guinea pig at 1 mg/kg, iv measured up to 180 mins post dose by HPLC analysis", "assay_type": "ADME, organism-based, Cavia porcellus", "conditions": "in vivo"}, "[10]": {"biological_target": "Integrin alpha-IIb/beta-3 (Homo sapiens, UniProt P05106+P08514)", "sequence (P05106 27-788 limits assumed)": "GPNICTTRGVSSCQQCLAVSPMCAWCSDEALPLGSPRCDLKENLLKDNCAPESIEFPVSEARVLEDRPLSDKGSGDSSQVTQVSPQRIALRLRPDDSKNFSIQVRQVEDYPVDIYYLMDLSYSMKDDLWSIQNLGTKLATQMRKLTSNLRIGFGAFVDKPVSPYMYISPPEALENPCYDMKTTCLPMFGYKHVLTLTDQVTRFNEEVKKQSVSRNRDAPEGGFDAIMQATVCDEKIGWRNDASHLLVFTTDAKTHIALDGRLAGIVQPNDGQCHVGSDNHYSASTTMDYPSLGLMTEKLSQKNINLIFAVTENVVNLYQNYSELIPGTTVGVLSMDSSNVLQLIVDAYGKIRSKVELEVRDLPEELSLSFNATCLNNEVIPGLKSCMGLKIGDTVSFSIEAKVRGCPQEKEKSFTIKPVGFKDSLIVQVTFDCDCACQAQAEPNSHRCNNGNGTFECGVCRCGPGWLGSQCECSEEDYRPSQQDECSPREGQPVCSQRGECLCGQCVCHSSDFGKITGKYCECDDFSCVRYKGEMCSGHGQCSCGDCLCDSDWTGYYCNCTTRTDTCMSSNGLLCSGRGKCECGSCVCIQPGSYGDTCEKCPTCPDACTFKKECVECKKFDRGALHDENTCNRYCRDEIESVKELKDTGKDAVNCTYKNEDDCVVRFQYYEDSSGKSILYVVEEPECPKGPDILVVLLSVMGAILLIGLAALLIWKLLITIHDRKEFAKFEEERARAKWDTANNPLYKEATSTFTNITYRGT", "sequence (P08514 32-887 limits assumed)": "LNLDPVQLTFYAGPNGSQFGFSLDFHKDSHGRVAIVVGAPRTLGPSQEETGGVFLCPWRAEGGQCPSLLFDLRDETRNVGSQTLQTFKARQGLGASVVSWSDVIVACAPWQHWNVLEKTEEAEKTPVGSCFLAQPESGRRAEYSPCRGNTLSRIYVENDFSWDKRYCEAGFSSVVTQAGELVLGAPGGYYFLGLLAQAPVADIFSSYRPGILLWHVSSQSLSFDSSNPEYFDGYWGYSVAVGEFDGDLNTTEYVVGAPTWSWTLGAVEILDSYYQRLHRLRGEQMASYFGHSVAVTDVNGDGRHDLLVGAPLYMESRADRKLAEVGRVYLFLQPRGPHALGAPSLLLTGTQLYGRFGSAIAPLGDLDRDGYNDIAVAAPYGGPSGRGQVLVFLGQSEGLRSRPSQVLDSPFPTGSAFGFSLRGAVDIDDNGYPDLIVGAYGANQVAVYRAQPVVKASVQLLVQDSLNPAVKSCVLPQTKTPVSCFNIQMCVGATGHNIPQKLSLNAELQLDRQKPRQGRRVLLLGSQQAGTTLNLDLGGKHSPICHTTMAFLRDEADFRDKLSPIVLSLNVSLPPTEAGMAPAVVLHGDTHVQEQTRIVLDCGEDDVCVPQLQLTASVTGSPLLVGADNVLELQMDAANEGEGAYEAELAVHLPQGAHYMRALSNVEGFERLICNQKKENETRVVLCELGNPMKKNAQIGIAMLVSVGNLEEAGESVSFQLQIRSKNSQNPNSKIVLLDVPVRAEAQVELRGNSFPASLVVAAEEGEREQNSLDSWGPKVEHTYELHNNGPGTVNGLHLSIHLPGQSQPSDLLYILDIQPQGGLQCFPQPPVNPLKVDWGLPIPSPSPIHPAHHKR", "sequence (P08514 891-1039 limits assumed)": "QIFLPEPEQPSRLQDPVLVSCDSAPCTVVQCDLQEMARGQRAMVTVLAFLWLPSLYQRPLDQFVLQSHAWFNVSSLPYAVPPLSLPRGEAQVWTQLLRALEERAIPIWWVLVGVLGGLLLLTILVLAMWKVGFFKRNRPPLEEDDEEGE", "test": "Inhibition of human GP2b/3a interaction with human fibrinogen after 3 hrs by ELISA", "assay_type": "protein-complex assay"}, "[11]": {"test": "Cmax in Sprague-Dawley rat at 10 mg/kg, po measured up to 120 mins post dose by HPLC analysis", "assay_type": "ADME, organism-based", "set-up": "dose 10 mg/kg, route oral", "conditions": "in vivo"}, "[12]": {"biological_target": "Retinoic acid receptor RXR-gamma (Homo sapiens, UniProt P48443)", "sequence (P48443 whole entry)": "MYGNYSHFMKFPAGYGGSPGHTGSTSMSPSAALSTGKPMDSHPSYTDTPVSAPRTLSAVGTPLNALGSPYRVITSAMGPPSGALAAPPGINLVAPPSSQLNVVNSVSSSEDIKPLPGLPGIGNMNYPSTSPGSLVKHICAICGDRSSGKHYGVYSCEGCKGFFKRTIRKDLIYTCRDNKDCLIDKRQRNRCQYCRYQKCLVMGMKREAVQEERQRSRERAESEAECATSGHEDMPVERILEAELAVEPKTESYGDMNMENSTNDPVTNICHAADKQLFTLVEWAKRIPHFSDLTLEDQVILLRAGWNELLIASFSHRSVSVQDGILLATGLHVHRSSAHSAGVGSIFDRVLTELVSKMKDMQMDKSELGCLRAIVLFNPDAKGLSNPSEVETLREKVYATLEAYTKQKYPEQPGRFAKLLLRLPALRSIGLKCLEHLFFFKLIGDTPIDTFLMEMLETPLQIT", "test": "Agonist activity at RXRgamma (unknown origin)"}, "[13]": {"biological_target": "Retinoic acid receptor beta (Homo sapiens, UniProt P10826)", "sequence (P10826 whole entry)": "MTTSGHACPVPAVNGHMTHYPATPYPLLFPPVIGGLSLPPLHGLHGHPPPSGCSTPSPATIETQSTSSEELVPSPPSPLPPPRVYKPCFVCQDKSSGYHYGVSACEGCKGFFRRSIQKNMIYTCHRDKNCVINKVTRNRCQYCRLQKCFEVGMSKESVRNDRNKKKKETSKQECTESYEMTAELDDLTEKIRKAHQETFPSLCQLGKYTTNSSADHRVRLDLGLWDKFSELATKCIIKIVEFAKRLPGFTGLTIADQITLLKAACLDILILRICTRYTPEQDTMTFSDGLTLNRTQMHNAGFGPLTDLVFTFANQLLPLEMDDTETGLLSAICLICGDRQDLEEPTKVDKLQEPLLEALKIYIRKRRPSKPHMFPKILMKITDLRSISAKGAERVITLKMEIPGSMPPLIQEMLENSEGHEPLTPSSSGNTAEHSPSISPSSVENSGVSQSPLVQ", "test": "Agonist activity at RARbeta (unknown origin)"}, "[14]": {"biological_target": "Retinoic acid receptor RXR-beta (Homo sapiens, UniProt P28702)", "test": "Agonist activity at RXRbeta (unknown origin)"}, "[15]": {"biological_target": "Retinoic acid receptor gamma (Homo sapiens, UniProt P13631)", "sequence (P13631 whole entry)": "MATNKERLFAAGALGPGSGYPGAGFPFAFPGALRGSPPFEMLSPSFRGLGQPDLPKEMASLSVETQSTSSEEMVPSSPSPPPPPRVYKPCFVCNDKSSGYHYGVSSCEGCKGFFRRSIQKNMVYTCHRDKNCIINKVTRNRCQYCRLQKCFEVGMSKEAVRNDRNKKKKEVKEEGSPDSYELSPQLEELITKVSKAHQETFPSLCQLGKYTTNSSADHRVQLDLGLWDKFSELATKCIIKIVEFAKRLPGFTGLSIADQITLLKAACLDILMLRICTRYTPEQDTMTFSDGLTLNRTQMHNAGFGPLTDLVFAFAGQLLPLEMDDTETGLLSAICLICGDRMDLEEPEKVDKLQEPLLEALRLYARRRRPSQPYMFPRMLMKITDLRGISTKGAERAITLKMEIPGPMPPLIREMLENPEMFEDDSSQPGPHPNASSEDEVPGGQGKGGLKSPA", "test": "Agonist activity at RARgamma (unknown origin)"}, "[16]": {"biological_target": "Retinoic acid receptor alpha (Homo sapiens, UniProt P10276)", "test": "Agonist activity at RARaplha (unknown origin)"}, "[17]": {"tested_on": "1A9", "test": "Cytotoxicity against human 1A9 cells", "assay_type": "functional, cell-based"}, "[18]": {"biological_target": "Insulin-like growth factor 1 receptor (Homo sapiens, UniProt P08069)", "sequence (P08069 31-736 limits assumed)": "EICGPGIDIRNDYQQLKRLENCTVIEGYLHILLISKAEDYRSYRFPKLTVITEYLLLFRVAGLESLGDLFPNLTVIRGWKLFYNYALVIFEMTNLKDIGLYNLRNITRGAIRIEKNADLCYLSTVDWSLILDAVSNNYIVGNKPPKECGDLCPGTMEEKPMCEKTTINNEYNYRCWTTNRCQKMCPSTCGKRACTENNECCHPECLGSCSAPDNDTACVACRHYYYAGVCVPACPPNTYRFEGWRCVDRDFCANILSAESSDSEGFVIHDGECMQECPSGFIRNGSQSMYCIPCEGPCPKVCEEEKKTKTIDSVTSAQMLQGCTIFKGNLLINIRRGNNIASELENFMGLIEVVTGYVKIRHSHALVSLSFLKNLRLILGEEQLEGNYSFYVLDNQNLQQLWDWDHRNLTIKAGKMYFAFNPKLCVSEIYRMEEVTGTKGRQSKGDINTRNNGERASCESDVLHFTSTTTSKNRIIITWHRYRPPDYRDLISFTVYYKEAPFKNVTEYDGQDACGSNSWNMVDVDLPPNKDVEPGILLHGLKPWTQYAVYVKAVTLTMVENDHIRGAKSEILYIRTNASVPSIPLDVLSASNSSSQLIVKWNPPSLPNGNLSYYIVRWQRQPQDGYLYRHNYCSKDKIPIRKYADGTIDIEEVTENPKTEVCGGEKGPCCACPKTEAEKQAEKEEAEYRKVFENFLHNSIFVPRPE", "sequence (P08069 741-1367 limits assumed)": "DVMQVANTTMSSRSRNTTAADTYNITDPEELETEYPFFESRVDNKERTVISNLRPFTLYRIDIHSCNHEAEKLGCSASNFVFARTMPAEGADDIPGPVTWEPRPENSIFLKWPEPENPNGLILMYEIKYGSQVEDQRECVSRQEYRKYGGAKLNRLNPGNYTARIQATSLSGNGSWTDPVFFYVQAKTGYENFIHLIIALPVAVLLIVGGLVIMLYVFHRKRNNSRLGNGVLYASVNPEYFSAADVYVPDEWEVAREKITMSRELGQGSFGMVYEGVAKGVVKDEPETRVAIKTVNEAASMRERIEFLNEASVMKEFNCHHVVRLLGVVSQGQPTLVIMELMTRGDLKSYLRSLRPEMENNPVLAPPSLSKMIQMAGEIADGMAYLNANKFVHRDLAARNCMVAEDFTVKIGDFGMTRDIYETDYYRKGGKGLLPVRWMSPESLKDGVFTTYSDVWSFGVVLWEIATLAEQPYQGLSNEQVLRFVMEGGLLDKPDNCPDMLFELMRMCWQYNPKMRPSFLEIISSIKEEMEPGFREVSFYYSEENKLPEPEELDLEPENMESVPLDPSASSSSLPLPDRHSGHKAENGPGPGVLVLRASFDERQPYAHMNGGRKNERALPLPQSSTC", "test": "Antagonist activity at human GST-tagged IGF-1R (950 to […] residues) expressed in baculovirus after 5 mins in presence of [gamma33P]-ATP by top count method"}, "[19]": {"biological_target": "Prothrombin (Homo sapiens, UniProt P00734)", "test": "Inhibition of human plasma thrombin using chromogenix AB as substrate after 30 secs by UV-spectrophotometry"}, "[20]": {"biological_target": "Prothrombin (Bos taurus, UniProt P00735)", "test": "Inhibition of bovine plasma thrombin using chromogenix AB as substrate after 30 secs by UV-spectrophotometry"}, "[21]": {"tested_on": "Human immunodeficiency virus 1", "test": "Antiviral activity against HIV1 3B infected in human H9 cells after 4 days by ELISA", "assay_type": "functional, cell-based", "conditions": "Human immunodeficiency virus 1, 3B, H9, 96 h"}, "[22]": {"tested_on": "Enterococcus faecalis", "test": "Antibacterial activity against Enterococcus faecalis", "assay_type": "functional"}, "[23]": {"tested_on": "Staphylococcus aureus", "test": "Antibacterial activity against methicillin-resistant Staphylococcus aureus", "assay_type": "functional"}, "[24]": {"tested_on": "Human immunodeficiency virus 1", "test": "Antiviral activity against HIV1", "assay_type": "functional"}, "[25]": {"tested_on": "Trypanosoma brucei brucei", "test": "Antitrypanosomal activity against Trypanosoma brucei brucei after 72 hrs by resazurin-based fluorescence assay", "assay_type": "functional"}, "[26]": {"tested_on": "Human immunodeficiency virus", "test": "Antiviral activity against Human immunodeficiency virus assessed as reduction in maturation", "assay_type": "functional", "conditions": "Human immunodeficiency virus 1"}, "[27]": {"test": "Inhibition of bacterial DNA gyrase subunit B", "set-up": "species or system Bacteria"}}, "data": [{"smiles": "COc1ccc2c(c1)-c1c(cnn1C[C@H](C)N)C2(C)C", "values": [{"measurement": "Ki", "setting": "[1]", "result": 2.51, "unit": "nM"}]}, {"smiles": "CC1(C)Oc2ccc(C#N)cc2C(N2CCCC2=O)C1O", "note": "(stereo in doubt; 110) [CROMAKALIM]", "values": [{"measurement": "Activity", "setting": "[2]", "result": 31, "unit": "%"}, {"measurement": "Activity", "setting": "[3]", "result": 47, "unit": "%"}]}, {"smiles": "CCc1c(Cl)c(O)c(Cl)c(O)c1C(=O)O[C@H]1[C@H](O)[C@H](OC)[C@H](OC/C2=C\\C=C\\C[C@H](O)/C(C)=C/[C@H](CC)[C@@H](O[C@@H]3OC(C)(C)[C@@H](OC(=O)C(C)C)[C@H](O)[C@@H]3O)/C(C)=C/C(C)=C/C[C@H]([C@@H](C)O)OC2=O)O[C@@H]1C", "values": [{"measurement": "MIC90", "setting": "[4]", "result": "0.125 to 0.25", "unit": "µg/mL"}]}, {"smiles": "CC1(C)[C@H](C(=O)N=C(N)N)[C@H]1c1cccc2c1CCO2", "values": [{"measurement": "IC50", "setting": "[5]", "result": 10, "unit": "nM"}, {"measurement": "half-life", "setting": "[6]", "result": 3, "unit": "h"}, {"measurement": "CL/F", "setting": "[7]", "result": 74, "unit": "mL/min/kg"}]}, {"smiles": "CCOC(=O)CC1CCN(C(=O)CC(CC)NC(=O)c2ccc(C(=N)N3CCSC3)cc2F)CC1", "note": "(racemic)", "values": [{"measurement": "Tmax", "setting": "[8]", "result": 0.5, "unit": "h"}, {"measurement": "half-life", "setting": "[9]", "result": 1.83, "unit": "h"}, {"measurement": "IC50", "setting": "[10]", "result": 2.3, "unit": "nM"}, {"measurement": "Cmax", "setting": "[11]", "result": 1210, "unit": "ng/mL"}]}, {"smiles": "C=C(c1ccc(C(=O)O)cc1)c1cc2c(cc1C)CCCC2(C)C", "values": [{"measurement": "EC50", "setting": "[12]", "result": 2600, "unit": "nM"}, {"measurement": "EC50", "setting": "[13]", "result": "> 10000", "unit": "nM"}, {"measurement": "EC50", "setting": "[14]", "result": 2400, "unit": "nM"}, {"measurement": "EC50", "setting": "[15]", "result": "> 10000", "unit": "nM"}, {"measurement": "EC50", "setting": "[16]", "result": "> 10000", "unit": "nM"}]}, {"smiles": "CC(=O)O[C@@]12CO[C@@H]1C[C@H](O)[C@@]1(C)C(=O)[C@H](O)C3=C(C)[C@@H](OC(=O)[C@H](O)[C@@H](NC(=O)OC(C)(C)C)c4ccccc4)C[C@@](O)([C@@H](OC(=O)c4ccccc4)[C@H]21)C3(C)C", "note": "[DOCETAXEL ANHYDROUS]", "values": [{"measurement": "IC50", "setting": "[17]", "result": 3.55, "unit": "nM"}]}, {"smiles": "CC(C)(Oc1cccc(-c2cn([C@H]3C[C@@H](CN4CCC4)C3)c3ncnc(N)c23)c1)[C@@H]1CCCO1", "values": [{"measurement": "IC50", "setting": "[18]", "result": 10, "unit": "nM"}]}, {"smiles": "CC1CNc2c(cccc2S(=O)(=O)N[C@@H](CCCNC(=N)N)C(=O)N2CCC(CCO)CC2)C1", "note": "(mixture of isomers)", "values": [{"measurement": "Ki", "setting": "[19]", "result": 40, "unit": "nM"}, {"measurement": "Ki", "setting": "[20]", "result": 50, "unit": "nM"}]}, {"smiles": "CC(=O)O[C@H]1C(=O)[C@@]2(C)[C@H]([C@H](OC(=O)c3ccccc3)[C@]3(O)C[C@H](OC(=O)[C@H](O)[C@@H](NC(=O)c4ccccc4)c4ccccc4)C(C)=C1C3(C)C)[C@]1(OC(C)=O)CO[C@@H]1C[C@@H]2O", "note": "[PACLITAXEL]", "values": [{"measurement": "IC50", "setting": "[17]", "result": 3.71, "unit": "nM"}]}, {"smiles": "CC(=O)O[C@@H]1[C@H](OC(=O)CC(C)C)c2c(ccc3ccc(=O)oc23)OC1(C)C", "note": "[SUKSDORFIN]", "values": [{"measurement": "IC50", "setting": "[21]", "result": 2600, "unit": "nM"}]}, {"smiles": "Cc1cc(O)cc(O)c1-c1cc(O)cc2cc3c(c(O)c12)C(=O)c1c(O)cc(O)c(Cl)c1C3(C)C", "values": [{"measurement": "MIC", "setting": "[22]", "result": 0.8, "unit": "µg/mL"}, {"measurement": "MIC", "setting": "[23]", "result": 3.1, "unit": "µg/mL"}]}, {"smiles": "CC1(C)CNc2c(cccc2S(=O)(=O)N[C@@H](CCCNC(=N)N)C(=O)N2CCC(CCO)CC2)C1", "values": [{"measurement": "Ki", "setting": "[19]", "result": 30, "unit": "nM"}, {"measurement": "Ki", "setting": "[20]", "result": 50, "unit": "nM"}]}, {"smiles": "N=C(N)NC(=O)[C@H]1C[C@@H]1c1cccc2c1CCO2", "values": [{"measurement": "CL/F", "setting": "[7]", "result": 120, "unit": "mL/min/kg"}]}, {"smiles": "C=C(C)[C@@H]1CC[C@]2(C(=O)O)CC[C@]3(C)[C@H](CC[C@@H]4[C@@]5(C)CC[C@H](O)C(C)(C)[C@@H]5CC[C@]43C)[C@@H]12", "note": "[BETULINIC ACID]", "values": [{"measurement": "EC50", "setting": "[24]", "result": 1400, "unit": "nM"}]}, {"smiles": "C/C(=C\\c1csc(C)n1)[C@@H]1C[C@@H]2O[C@]2(C)CCC[C@H](C)[C@H](O)[C@@H](C)C(=O)C(C)(C)[C@@H](O)CC(=O)O1", "note": "[PATUPILONE]", "values": [{"measurement": "IC50", "setting": "[17]", "result": 0.06, "unit": "nM"}]}, {"smiles": "O=C(Nc1ccc2c(c1)B(O)OC2)c1ccc(F)cc1C(F)(F)F", "values": [{"measurement": "IC50", "setting": "[25]", "result": 180, "unit": "nM"}]}, {"smiles": "CC1=C[C@@H]2[C@@H]([C@@H]3[C@H]1\\C=C/C=C/C=C\\[C@@H](O)[C@H](C)[C@H](O)C/C=C(C)/C=C/C(=O)O[C@H]3c1ccc(O)cc1)C(C)(C)C[C@@]2(C)O", "values": [{"measurement": "MIC", "setting": "[22]", "result": 0.3, "unit": "µg/mL"}]}, {"smiles": "C=C(C)[C@@H]1CC[C@]2(C(=O)O)CC[C@]3(C)[C@H](CC[C@@H]4[C@@]5(C)CC[C@H](OC(=O)CC(C)(C)C(=O)O)C(C)(C)[C@@H]5CC[C@]43C)[C@@H]12", "note": "[BEVIRIMAT]", "values": [{"measurement": "EC50", "setting": "[26]", "result": 10.3, "unit": "nM"}]}, {"smiles": "CO[C@@H]1[C@@H](OC(N)=O)[C@@H](O)[C@H](Oc2ccc3c(O)c(NC(=O)c4ccc(O)c(CC=C(C)C)c4)c(=O)oc3c2C)OC1(C)C", "note": "[NOVOBIOCIN]", "values": [{"measurement": "IC50", "setting": "[27]", "result": 80, "unit": "nM"}]}]}
